From US20240374551A1, “ENTERO-ANTISEPTIC FOR THE TREATMENT OF GASTROINTESTINAL INFECTIONS IN HUMANS” (priority 2023, published 2024)

Assays:
Staphylococcus aureus = assay: Zone diameter on Müler-Hinton-Agar; format: cell-based
Yersinia = format: cell-based; settings: Müler-Hinton-Agar
[1] = tested on: Salmonella typhimurium DT104; assay: Zone diameter on Müler-Hinton-Agar; format: cell-based
Listeria = assay: Zone diameter on Müler-Hinton-Agar; format: cell-based
Listeria monocytogenes = assay: Zone diameter on Müler-Hinton-Agar; format: cell-based
white lab mice [2] = assay: Acute toxicity, oral LD50 p.o., mice
white lab rats [3] = assay: Acute toxicity, oral LD50 p.o., rats
Escherichia coli 0157H5 = assay: Zone diameter on Müler-Hinton-Agar; format: cell-based
Shigella = assay: Zone diameter on Müler-Hinton-Agar; format: cell-based
white lab mice [4] = assay: Acute toxicity, parenteral intraperitoneal LD50 i.p., mice; settings: mouse, in vivo
Streptococcus uberis = assay: Zone diameter on Müler-Hinton-Agar; format: cell-based
Streptococcus pyogenes = assay: Zone diameter on Müler-Hinton-Agar; format: cell-based
Vibrio = assay: Zone diameter on Müler-Hinton-Agar; format: cell-based
Campylobacter = assay: Zone diameter on Müler-Hinton-Agar; format: cell-based
[5] = Clinical pilot study on side effects, 60 humans; format: in vivo; settings: 250 mg/30 kg body weight every 12 h for 7 days
Procedure: The reason for this testing was to check if the compound tablets, after a longer period of use, can cause any eventual side effects.
The test results were generated and monitored to obtain the relevant information and facts. In this study, the general monitored parameters were: pulse, breathing, ECG (Electrocardiography), discomfort, adverse events, and/or allergy monitoring. These parameters were measured before the treatment with the compound and 15 min after its intake. The compound was ingested on the therapeutic days in each patient at 8.00 AM and 8.00 PM CET (paragraph [0034] and paragraph [0035]). After The compound had been consumed, the physician made observations for 30 min. The patients' feelings during and after the compound intake were also recorded for each participant.
As part of the biochemical analysis of patients' blood, each patient's blood sample was checked for biochemical parameters. Blood samples were taken from each patient before the beginning of the test, on the 4th day from the tests beginning, and on the 8th day from the tests beginning. […] The biochemical parameters that were measured in blood samples include: • 1. Liver status • 2. C Reactive protein • 3. Kidney status
The dose was: 250 mg of the compound/30 kg of the body weight every 12 h for seven (7) days (paragraph [0034] and paragraph [0035]). […]

Streptococcus pneumonia = assay: Zone diameter on Müler-Hinton-Agar; format: cell-based
mammalian cells = assay: Pilot test of effect on mitotic cell division; settings: compound in tablet form
bacteria = assay: In vitro studies of bactericide effect versus Thymol and Carvacrol; format: cell-based
white lab rats [6] = assay: Acute toxicity, parenteral intraperitoneal LD50 i.p., rats
Salmonella = assay: Zone diameter on Müler-Hinton-Agar; format: cell-based

Compound	R (evaluation by zone diameter) (Staphylococcus aureus)	R (evaluation by zone diameter) (Yersinia)	R (evaluation by zone diameter) [1]	R (evaluation by zone diameter) (Listeria)	R (evaluation by zone diameter) (Listeria monocytogenes)	R (evaluation by zone diameter) (Escherichia coli 0157H5)	R (evaluation by zone diameter) (Shigella)	R (evaluation by zone diameter) (Streptococcus uberis)	R (evaluation by zone diameter) (Streptococcus pyogenes)	R (evaluation by zone diameter) (Vibrio)	R (evaluation by zone diameter) (Campylobacter)	R (evaluation by zone diameter) (Streptococcus pneumonia)	R (evaluation by zone diameter) (Salmonella)	also measured
2-(2-isopropyl-5-methylphenoxy)-2-oxoethan-1-aminium 2-isopropyl-5methylphenolate [The novel compound]	ES (21 mm and more: extremely sensitive: ES)	ES (21 mm and more: extremely sensitive: ES)	ES (21 mm and more: extremely sensitive: ES)	ES (21 mm and more: extremely sensitive: ES)	ES (21 mm and more: extremely sensitive: ES)	ES (21 mm and more: extremely sensitive: ES)	ES (21 mm and more: extremely sensitive: ES)	ES (21 mm and more: extremely sensitive: ES)	ES (21 mm and more: extremely sensitive: ES)	ES (21 mm and more: extremely sensitive: ES)	ES (21 mm and more: extremely sensitive: ES)	ES (21 mm and more: extremely sensitive: ES)	ES (21 mm and more: extremely sensitive: ES)	time after which discomfort symptoms disappeared (white lab mice [2]; mice, p.o., 2,000 mg/kg): 1 to 3 min; mice that changed their behavior and demonstrated light discomfort (white lab mice [2]; out of 100 mice, oral dose 2,000 mg/kg): 21; rats that changed their behavior and demonstrated light discomfort (white lab rats [3]; out of 100 rats, oral dose 2,500 mg/kg): 37; time after which discomfort symptoms disappeared (white lab rats [3]; rats, p.o., 2,500 mg/kg): 1 to 3 min; mice that changed their behavior and demonstrated discomfort (white lab mice [4]): 27; time after which discomfort symptoms disappeared (white lab mice [4]): 3 to 5 min; allergy symptoms [5]: no allergy symptoms; tolerance [5]: showed tolerance; effect on mitotic cell division (mammalian cells): no negative effects were diagnosed; bactericide effect compared with Thymol and Carvacrol (bacteria): more effective and faster bactericide effect than existing Thymol and Carvacrol; rats that changed their behavior and demonstrated discomfort (white lab rats [6]; out of 100 rats, i.p. dose 2,500 mg/kg): 35; time after which discomfort symptoms disappeared (white lab rats [6]; rats, i.p., 2,500 mg/kg): 5 to 6 min
CC1(C)S[C@@H]2[C@H](NC(=O)[C@H](N)c3ccccc3)C(=O)N2[C@H]1C(=O)O [Ampicillin]	R (0 mm-4 mm: resistant: R)	R (0 mm-4 mm: resistant: R)	MS (5 mm-9 mm: moderately sensitive: MS)	R (0 mm-4 mm: resistant: R)	MS (5 mm-9 mm: moderately sensitive: MS)	MS (5 mm-9 mm: moderately sensitive: MS)	MS (5 mm-9 mm: moderately sensitive: MS)	R (0 mm-4 mm: resistant: R)	R (0 mm-4 mm: resistant: R)	R (0 mm-4 mm: resistant: R)	R (0 mm-4 mm: resistant: R)	R (0 mm-4 mm: resistant: R)	MS (5 mm-9 mm: moderately sensitive: MS)	–
